No end group written: not given here.

The results in this text go back to US10994010B2, “Selective targeting of the CD40L/Mac-1 interaction by small peptide inhibitors and its use for the treatment of inflammation and atherogenesis” (Universitaetsklinikum Freiburg, priority 2010, dated 2021).

In experiment [1] the target is T1, CD40L binding to Mac-1 I-domain (Homo sapiens, UniProt P29965).
T1 construct: inserting the coding DNA for amino acids E^108 to L^261 in pHOG-21; His (N); trimerization domain (N); made in house
T1 sequence (P29965 108-261): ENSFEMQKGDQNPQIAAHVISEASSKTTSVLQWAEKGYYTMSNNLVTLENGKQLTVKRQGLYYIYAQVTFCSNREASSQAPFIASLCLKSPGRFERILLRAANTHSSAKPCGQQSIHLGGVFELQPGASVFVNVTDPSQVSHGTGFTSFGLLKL
Briefly: Solid phase binding assay: blocking of CD40L binding to immobilized Mac-1 I-domain by peptides. To be noted: for blocking of CD40L / Mac-1 I-domain binding: peptides 50 μM. Here is the method:
(§1) Solid phase binding assay. Recombinant CD40L was incubated with immobilized Mac-1 I-domain in the presence or absence of blocking peptides. Binding of sCD40L was detected by addition of anti-cmyc-HRP (Invitrogen), TMB-substrate (Pierce), and colorimetric reaction. Alternatively, CD40L (Provitro) was immobilized, and binding of the recombinant Mac-1 I-domain was quantified by addition of anti-His-Biotin (Qiagen), and HRP-coupled streptavidin (Pierce). For the binding to immobilized peptides, CD40L was biotinylated with the Micro Biotinylation Kit (Sigma). A mixture of equal molarities of all peptides served as the positive control in this assay.
The recombinant Mac-1 I-domain was immobilized in 96-well plates (Nunc) in PBS at 4° C. overnight. After blocking in 2% BSA/PBS and subsequent washing with PBS, recombinant CD40L was added to the wells in the indicated concentrations and incubated for 2 hours at 37° C. Effect of the peptides M1-M8 was assessed by incubating CD40L (10 μg/ml) in the presence of peptides (50 μM). After removing of unbound CD40L by washing with 0.1% Tween-20/PBS, anti-c-myc-HRP (Invitrogen) was added and incubated for 2 hours at room temperature. Binding was quantified by addition of TMB-substrate (Pierce), colorimetric reaction at 450 nm. Alternatively, CD40L without a His-tag (Provitro) was immobilized and blocked as described above. Binding of the recombinant Mac-1 I-domain was quantified by addition of anti-His-Biotin monoclonal antibody (Qiagen), HRP-coupled streptavidin (Pierce) and colorimetric reaction at 450 nm. For the specific binding of the Mac-1 I-domain BSA-coated wells were subtracted from the CD40L-coated. Kd was estimated using a one-site binding hyperbola nonlinear regression model with the Software Prism (Graphpad). For quantification of the binding of CD40L to peptides, peptides were immobilized in 96-well plates overnight at 4° C. in 50 mM sodium carbonate, pH 10.6. CD40L was biotinylated using the Micro-Biotinylation-Kit (Sigma) following the manufacturer's instructions and detected by HRP-coupled streptavidin (Pierce) and colorimetric reaction. A mixture of equal molarities of all peptides served as positive control. Absorbance on BSA-coated wells served as negative control and was subtracted.

Experiment [2] deals with Mac-1 expressing CHO cells. Briefly: Flow cytometry: binding of CD40L to Mac-1 expressing CHO cells. Particulars: peptides 50 μM. It is filed as cell-based. As to the method: (§2) Flow cytometric analysis, platelet activation assays, and quantification of leukocyte-platelet aggregates, were performed as previously described (Zirlik et al., 2007). Binding of cM7 to CD40L-expressing murine fibroblasts was determined by quantification of FITC-coupled cM7. Binding of CD40L to Mac-1 expressing CHO-cells or human leukocytes was performed by incubation with CD40L (10 μg/ml) and subsequent detection with anti-PentaHis antibody (Qiagen).
(§3) Flow cytometric analyses, as well as platelet activation assays and quantification of leukocyte-platelet aggregates were performed as previously described (Quezada et al., Ann. Rev. Immunol. (2004), pp 307-328). Briefly, murine blood samples were taken by intracardiac puncture. Red cells were lyzed in 155 mM NH4Cl, 5.7 mM K2HPO4, 0.1 mM EDTA, pH 7.3. […] Antibodies for epitope specific fluorescence-activated cell sorting (FACS Calibur, BD) included anti-CD11b, anti-CD115, anti-Gr-1, anti-CD4, anti-CD8, anti-CD20, anti-CD41, anti-CD62P, anti-CD54, anti-CD102, and anti-CD106 (all from Ebioscience). Binding of cM7 to CD40L- or mock-transfected murine fibroblasts was determined by incubation of FITC-cM7 at the indicated concentrations with cells for 30 min at 37° C. and subsequent quantification of the fluorescence in the FL-1 channel. […]
A general note: In flow cytometry, cells or beads pass a laser one at a time.

Experiment [3] relates to human granulocytes and monocytes. Briefly: Flow cytometry: binding of CD40L to human granulocytes and monocytes. It is filed as cell-based. As to the method: as §2, §3
For experiment [4], the system named is adhesion of THP-1 cells to CD40L. Kind of experiment: Static adhesion assay: activated THP-1 cells on immobilized CD40L. To be noted: peptides 50 μM. It is filed as cell-based. Here is the method:
(§4) 96-well plates (Nunc) were coated with sCD40L and incubated with CHO cells expressing constitutively activated Mac-1, as described previously, or THP-1 cells. Cells were allowed to adhere for 20 to 50 minutes. Blocking antibodies (10 μg/ml) were pre-incubating with the cells. As indicated, assays were carried out in the presence of peptides (50 μM). Permeabilization buffer (6 mg/ml phosphatase substrate (Sigma), 1% Triton X-100, 50 mM sodium acetate, pH 5.5) was added to quantify adhering cells by colorimetric reaction. Alternatively, adhering cells were counted. Murine EC were isolated as previously described. Mac-1 expressing CHO were loaded with CFDA-SE (Invitrogen), allowed to adhere for 45 minutes, and quantified under the fluorescence microscope. […] Adhering and rolling cells were quantified in a parallel flow chamber system (Glycotech) at the indicated shear rates and in the presence of the indicated peptides (1 μM) or antibodies (10 μg/ml). […]
96-well plates (Nunc) were coated with sCD40L (10 μg/ml) in PBS overnight at 4° C. […] After removal of unbound cells by washing with PBS, permeabilization buffer (6 mg/ml phosphatase substrate (Sigma), 1% Triton X-100, 50 mM sodium acetate, pH 5.5) was added for 1 hour at 37° C. and adhering cells were quantified by colorimetric reaction at 405 nm. Alternatively, adhering cells were counted under the microscope (Zeiss). […]

Another experiment addresses T2, CD40L (Homo sapiens, UniProt P29965).
T2 construct: inserting the coding DNA for amino acids E^108 to L^261 in pHOG-21; c-myc (N); His (N); trimerization domain (N); made in house; host or cells: E. coli TG-1
T2 sequence (P29965 108-261): T1 sequence (P29965 108-261)
Kind of experiment: Solid phase assay: direct binding of biotinylated CD40L to immobilized peptides. Here is the method: as §1
The recombinant Mac-1 I-domain was immobilized in 96-well plates (Nunc) in PBS at 4° C. overnight. […] Effect of the peptides M1-M8 was assessed by incubating CD40L (10 μg/ml) in the presence of peptides (50 μM). […] Binding was quantified by addition of TMB-substrate (Pierce), colorimetric reaction at 450 nm. […] Binding of the recombinant Mac-1 I-domain was quantified by addition of anti-His-Biotin monoclonal antibody (Qiagen), HRP-coupled streptavidin (Pierce) and colorimetric reaction at 450 nm. […] For quantification of the binding of CD40L to peptides, peptides were immobilized in 96-well plates overnight at 4° C. in 50 mM sodium carbonate, pH 10.6. […] Absorbance on BSA-coated wells served as negative control and was subtracted.

Experiment [5] deals with adhesion of Mac-1-CHO cells to GPIbα. Kind of experiment: Dynamic flow chamber assay: Mac-1-CHO cells on GPIbα. It is filed as cell-based. Particulars: peptides 1 μM. As to the method:
as §4
For dynamic adhesion assays, 35 mm dishes were coated overnight at 4° C. with 1% BSA, CD40L, GPIbα (Abnova), ICAM-1 (R&D systems) or fibrinogen (Sigma), at a concentration of 10 μg/ml, and 30 μg/ml, respectively. […] Cells were quantified under the microscope (Olympus). […] Adhesion and rolling of peritoneal exudate cells on isolated murine endothelial cells was quantified as described above. […]

EQLKKSKTL [Peptide M7] registered an IC50 in experiment [1] (concentration dependent) of about 4 µM. The “blocking of CD40L / Mac-1 I-domain binding” value in experiment [1] is “emerged as potential candidate inhibitors”. The “blocking of binding of CD40L to Mac-1-CHO cells” value in experiment [2] was “neutralized binding of CD40L”. Besides, the “blocking of binding of CD40L to human granulocytes and monocytes” value in experiment [3] is “the only peptide blocking binding of CD40L to human granulocytes and monocytes”. Moreover, in experiment [4], the “blocking of adhesion of THP-1 cells to CD40L” value is recorded as “most efficiently blocked adhesion of THP-1 cells to CD40L”. Moreover, the “direct binding of CD40L to immobilized peptide” value at CD40L was “mediated direct binding to CD40L”.

On to “PITQLLGRTHTATGIRK (therapeutically active peptide) [Peptide M2, GPIbα-specific control peptide]”, for which the “blocking of CD40L / Mac-1 I-domain binding” value in experiment [1] is given as “not affecting CD40L-Mac-1 binding”. For the same sequence, the “effect on adhesion of Mac-1-CHO cells to GPIbα” value in experiment [5] was “blocked the interaction between Mac-1 and GPIbα”.

The term IC50 denotes the point on the concentration scale where inhibition reaches its midpoint.
